Data as given in the supplement of paper PMC10307832.

How the values were obtained:
Assay in all cases: relative viability (nuclei count vs DMSO), 5 days (fraction); higher = more cells survive
[1] = compound: CN1CCN(CC1)C2=CC(=C(C=C2)NC3=NC=C4C(=N3)N(C5=CC=CC=C5C(=O)N4C)C)OC [XMD8-85] + CC1(C)CCC(c2ccc(Cl)cc2)=C(CN2CCN(c3ccc(C(=O)NS(=O)(=O)c4ccc(N[C@H](CCN5CCOCC5)CSc5ccccc5)c(S(=O)(=O)C(F)(F)F)c4)cc3)CC2)C1 [Navitoclax] (partner 0.5 µM)
Summary of the method: (§1)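 The day after seeding in 1536-well plates, lung cancer cell lines were treated by pin tool with a single drug, or with a fixed anchor-drug dose together with five library-drug doses (not always all listed) in √10 steps. After 5 days, a combined fix-and-stain solution (final 0.05% Triton X-100, 1% formaldehyde, 1 ug/ml Hoechst) was added. Nuclei counted on 4× images gave relative viability as treated counts over vehicle counts, reported as the median of duplicate plates.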

[2] = compound: CN1CCN(CC1)C2=CC(=C(C=C2)NC3=NC=C4C(=N3)N(C5=CC=CC=C5C(=O)N4C)C)OC [XMD8-85] + COc1cc2c(Oc3ccc(NC(=O)C4(C(=O)Nc5ccc(F)cc5)CC4)cc3F)ccnc2cc1OCCCN1CCOCC1 [Foretinib] (partner 0.25 µM)
Summary of the method: as §1

[3] = compound: CN1CCN(CC1)C2=CC(=C(C=C2)NC3=NC=C4C(=N3)N(C5=CC=CC=C5C(=O)N4C)C)OC [XMD8-85]
Summary of the method: (§2)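 For viability, nuclei in each treated well were divided by nuclei in vehicle wells and the median across plates was taken. Lung cancer cell lines in 1536-well plates were pinned with five library-drug doses (not always all listed) spaced by √10, cultured 5 days without medium change, and imaged at 4× after Hoechst staining, with plates passing only at control CV below 25% and at least one doubling.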

[4] = compound: O=C(O)C(Cc1ccccc1[N+](=O)[O-])=NNc1nc(-c2ccc(Cl)c(Cl)c2)cs1 (mixture of isomers) [4EGI-1]
Summary of the method: as §2

| Cell Line | relative viability ([1]; first compound 0.08 µM) | relative viability ([1]; first compound 0.253 µM) | relative viability ([1]; first compound 0.8 µM) | relative viability ([1]; first compound 2.53 µM) | relative viability ([1]; first compound 8 µM) | relative viability ([2]; first compound 0.08 µM) | relative viability ([2]; first compound 0.253 µM) | relative viability ([2]; first compound 0.8 µM) | relative viability ([2]; first compound 2.53 µM) | relative viability ([2]; first compound 8 µM) | relative viability ([3]; 0.08 µM) | relative viability ([3]; 0.253 µM) | relative viability ([3]; 0.8 µM) | relative viability ([3]; 2.53 µM) | relative viability ([3]; 8 µM) | relative viability ([4]; 0.5 µM) | relative viability ([4]; 1.581 µM) | relative viability ([4]; 5 µM) | relative viability ([4]; 15.81 µM) | relative viability ([4]; 50 µM) |
| --- | --- | --- | --- | --- | --- | --- | --- | --- | --- | --- | --- | --- | --- | --- | --- | --- | --- | --- | --- | --- |
| NCI-H1355 | 1.06 | 1.01 | 0.977 | 0.862 | 0.804 | 1.02 | 1.01 | 0.977 | 0.878 | 0.811 | 0.995 | 0.941 | 1.01 | 1.13 | 0.749 | 1.04 | 0.93 | 0.948 | 0.862 | 0.566 |
| NCI-H1975 | 1.25 | 1.12 | 1.09 | 1.09 | 0.532 | 1.05 | 0.925 | 0.917 | 0.779 | 0.561 | 0.989 | 0.92 | 0.98 | 0.962 | 0.638 | 1.02 | 0.904 | 1 | 0.996 | 0.768 |
| NCI-H1299 | 1.1 | 1.06 | 1.06 | 1 | 0.804 | 1.13 | 1.1 | 1.1 | 1.11 | 0.86 | 1.06 | 1.03 | 1.01 | 0.98 | 0.81 | 1.02 | 1.01 | 1.01 | 1.03 | 0.828 |
| NCI-H522 |  |  |  |  |  |  |  |  |  |  | 0.94 | 1.11 | 0.947 | 1.09 | 0.677 | 1.01 | 0.878 | 0.99 | 0.922 | 0.69 |
| NCI-H2342 |  |  |  |  |  | 0.993 | 0.938 | 1.15 | 0.971 | 0.946 | 0.873 | 1.07 | 1.02 | 1.02 | 1.06 | 1.13 | 0.889 | 0.989 | 1.03 | 0.869 |
| HCC-44 | 1.03 | 1.03 | 1.05 | 0.796 | 0.434 |  |  |  |  |  | 1.02 | 0.948 |  | 1.02 | 0.812 | 0.999 | 0.507 | 0.993 | 0.877 | 0.695 |
| NCI-H358 |  |  |  |  |  | 0.656 | 0.774 | 0.84 | 0.673 | 0.422 | 0.881 | 0.914 | 0.977 | 0.984 | 0.691 | 1.01 | 0.767 | 0.998 | 0.629 | 0.16 |
| NCI-H650 |  |  |  |  |  | 1.05 | 0.997 | 0.947 | 1.04 | 0.685 | 0.989 | 1.01 | 0.948 | 0.841 | 0.556 | 1.12 |  | 1.03 | 0.959 | 0.753 |
| NCI-H661 |  |  |  |  |  | 1.16 | 1.09 | 0.989 | 1.07 | 0.91 | 1 | 1.01 | 0.963 | 1.05 | 0.903 | 0.975 | 0.911 | 0.974 | 0.583 | 0.467 |
| ABC-1 |  |  |  |  |  | 0.871 | 0.9 | 1.41 | 0.947 | 0.578 | 0.879 | 0.87 | 1.17 | 0.952 | 0.517 | 1.08 | 0.819 | 1.1 | 0.525 | 0.195 |
